Data from patent US9529005B2, “Modulating bacterial MAM polypeptides in pathogenic disease” (priority 2011, dated 2016).
In brackets after ≈: the same amount, converted by molar mass. Where two headings read alike, the source gives them in different places.

Assays:
Test in all cases: Antimicrobial susceptibility testing (MIC), BD Phoenix Automated Microbiology System; on interpretation of the result: key: R, resistant; I, intermediate; S, susceptible; R*: *As a rule, when ESBL is detected, an interpretation of susceptible or intermediate for penicillins, cephalosporins and aztreonam is reported as resistant
Type in all cases: cell-based
Escherichia coli = conditions: for MIC: Escherichia coli
From the text: (§1) The inventors performed antimicrobial susceptibility testing (AST) by determining the minimal inhibiting concentration (MIC) of a panel of antimicrobials on all twenty bacterial isolates using the BD Phoenix Automated Microbiology System (Table 3). Antimicrobial panels included several drugs from each of the four most commonly used classes of antimicrobials, aminoglycosides, β-lactams, carbapenems and fluoroquinolones. The panels also included antimicrobials from other classes, such as trimethoprim/sulfamethoxazole, but resistance to these was not considered in the classification of isolates as multidrug-resistant.

Pseudomonas aeruginosa = conditions: for MIC: Pseudomonas aeruginosa
From the text: as §1

Acinetobacter baumannii = conditions: for MIC: Acinetobacter baumannii
From the text: as §1

Klebsiella ssp. = conditions: for MIC: Klebsiella
From the text: as §1

[1] = read-out: minimal inhibiting concentration, Escherichia coli isolate 1
[2] = read-out: minimal inhibiting concentration, Escherichia coli isolate 2
[3] = read-out: minimal inhibiting concentration, Escherichia coli isolate 3
[4] = read-out: minimal inhibiting concentration, Escherichia coli isolate 4
[5] = read-out: minimal inhibiting concentration, Escherichia coli isolate 5
[6] = Pseudomonas aeruginosa isolate 1
[7] = Pseudomonas aeruginosa isolate 2
[8] = Pseudomonas aeruginosa isolate 3
[9] = Pseudomonas aeruginosa isolate 4
[10] = Pseudomonas aeruginosa isolate 5
[11] = Acinetobacter baumannii isolate 1
[12] = Acinetobacter baumannii isolate 2
[13] = Acinetobacter baumannii isolate 3
[14] = Acinetobacter baumannii isolate 4
[15] = Acinetobacter baumannii isolate 5
[16] = read-out: minimal inhibiting concentration, Acinetobacter baumannii isolate 1
[17] = read-out: minimal inhibiting concentration, Acinetobacter baumannii isolate 2
[18] = read-out: minimal inhibiting concentration, Acinetobacter baumannii isolate 3
[19] = read-out: minimal inhibiting concentration, Acinetobacter baumannii isolate 4
[20] = read-out: minimal inhibiting concentration, Acinetobacter baumannii isolate 5
[21] = read-out: minimal inhibiting concentration, Klebsiella ssp. isolate 1
[22] = read-out: minimal inhibiting concentration, Klebsiella ssp. isolate 2
[23] = read-out: minimal inhibiting concentration, Klebsiella ssp. isolate 3
[24] = read-out: minimal inhibiting concentration, Klebsiella ssp. isolate 4
[25] = read-out: minimal inhibiting concentration, Klebsiella ssp. isolate 5
[26] = Escherichia coli isolate 1, read-out: minimal inhibiting concentration
[27] = Escherichia coli isolate 2, read-out: minimal inhibiting concentration
[28] = Escherichia coli isolate 3, read-out: minimal inhibiting concentration
[29] = Escherichia coli isolate 4, read-out: minimal inhibiting concentration
[30] = Escherichia coli isolate 5, read-out: minimal inhibiting concentration

| Molecule | interpretation of the result (Escherichia coli; Escherichia coli isolate 1) | interpretation of the result (Escherichia coli; Escherichia coli isolate 2) | interpretation of the result (Escherichia coli; Escherichia coli isolate 3) | interpretation of the result (Escherichia coli; Escherichia coli isolate 4) | interpretation of the result (Acinetobacter baumannii; [11]) | interpretation of the result (Acinetobacter baumannii; [12]) | interpretation of the result (Acinetobacter baumannii; [13]) | interpretation of the result (Acinetobacter baumannii; [14]) | interpretation of the result (Acinetobacter baumannii; [15]) | MIC (Acinetobacter baumannii; [16]) [µg/mL] | MIC (Acinetobacter baumannii; [17]) [µg/mL] | MIC (Acinetobacter baumannii; [18]) [µg/mL] | MIC (Acinetobacter baumannii; [19]) [µg/mL] | MIC (Acinetobacter baumannii; [20]) [µg/mL] | interpretation of the result (Klebsiella ssp.; Klebsiella ssp. isolate 1) | interpretation of the result (Klebsiella ssp.; Klebsiella ssp. isolate 2) | interpretation of the result (Klebsiella ssp.; Klebsiella ssp. isolate 3) | interpretation of the result (Klebsiella ssp.; Klebsiella ssp. isolate 4) | further results |
| --- | --- | --- | --- | --- | --- | --- | --- | --- | --- | --- | --- | --- | --- | --- | --- | --- | --- | --- | --- |
| CO/N=C(\C(=O)N[C@@H]1C(=O)N2C(C(=O)O)=C(COC(N)=O)CS[C@H]12)c1ccco1 [Cefu., Cefuroxime] | R | R | R | R | R | R | R | R | R | > 16 | > 16 | > 16 | > 16 | > 16 | – | – | – | – | interpretation of the result (Escherichia coli; Escherichia coli isolate 5): R; MIC (Escherichia coli; [1]): > 16 µg/mL; MIC (Escherichia coli; [2]): > 16 µg/mL; MIC (Escherichia coli; [3]): > 16 µg/mL; MIC (Escherichia coli; [4]): > 16 µg/mL; MIC (Escherichia coli; [5]): > 16 µg/mL; interpretation of the result (Pseudomonas aeruginosa; [6]): R; interpretation of the result (Pseudomonas aeruginosa; [7]): R; interpretation of the result (Pseudomonas aeruginosa; [8]): R; interpretation of the result (Pseudomonas aeruginosa; [9]): R; interpretation of the result (Pseudomonas aeruginosa; [10]): R; MIC (Pseudomonas aeruginosa; read-out: minimal inhibiting concentration, Pseudomonas aeruginosa isolate 1): > 16 µg/mL; MIC (Pseudomonas aeruginosa; read-out: minimal inhibiting concentration, Pseudomonas aeruginosa isolate 2): > 16 µg/mL; MIC (Pseudomonas aeruginosa; read-out: minimal inhibiting concentration, Pseudomonas aeruginosa isolate 3): > 16 µg/mL; MIC (Pseudomonas aeruginosa; read-out: minimal inhibiting concentration, Pseudomonas aeruginosa isolate 4): > 16 µg/mL; MIC (Pseudomonas aeruginosa; read-out: minimal inhibiting concentration, Pseudomonas aeruginosa isolate 5): > 16 µg/mL |
| CO/N=C(\C(=O)N[C@@H]1C(=O)N2C(C(=O)O)=C(COC(C)=O)CS[C@H]12)c1csc(N)n1 [Cefo., Cefotaxime] | – | – | – | – | R | R | R | R | R | > 32 | > 32 | > 32 | > 32 | > 32 | R | R | S | R | interpretation of the result (Klebsiella ssp.; Klebsiella ssp. isolate 5): R; MIC (Klebsiella ssp.; [21]): > 32 µg/mL; MIC (Klebsiella ssp.; [22]): > 32 µg/mL; MIC (Klebsiella ssp.; [23]): ≤ 4 µg/mL; MIC (Klebsiella ssp.; [24]): > 32 µg/mL; MIC (Klebsiella ssp.; [25]): > 32 µg/mL |
| O=C(O)c1cn(C2CC2)c2cc(N3CCNCC3)c(F)cc2c1=O [Cipro., Ciprofloxacin] | R | R | R | R | – | – | – | – | – | – | – | – | – | – | – | – | – | – | interpretation of the result (Escherichia coli; Escherichia coli isolate 5): R; MIC (Escherichia coli; [26]): > 2 µg/mL; MIC (Escherichia coli; [27]): > 2 µg/mL; MIC (Escherichia coli; [28]): > 2 µg/mL; MIC (Escherichia coli; [29]): > 2 µg/mL; MIC (Escherichia coli; [30]): > 2 µg/mL |
| CCN1CCN(C(=O)N[C@@H](C(=O)N[C@@H]2C(=O)N3[C@@H]2SC(C)(C)[C@@H]3C(=O)O)c2ccccc2)C(=O)C1=O [Pip., Piperacillin] | – | – | – | – | R | R | R | R | R | > 64 | > 64 | > 64 | > 64 | > 64 | – | – | – | – | – |
| CC(=O)OCC1=C(C(=O)O)N2C(=O)[C@@H](NC(=O)Cc3cccs3)[C@H]2SC1 [Ceph., Cephalotin] | – | – | – | – | R | R | R | R | R | – | – | – | – | – | – | – | – | – | minimal inhibiting concentration (Acinetobacter baumannii; [11]): > 16 µg/mL; minimal inhibiting concentration (Acinetobacter baumannii; [12]): > 16 µg/mL; minimal inhibiting concentration (Acinetobacter baumannii; [13]): > 16 µg/mL; minimal inhibiting concentration (Acinetobacter baumannii; [14]): > 16 µg/mL; minimal inhibiting concentration (Acinetobacter baumannii; [15]): > 16 µg/mL |
| Ampicillin-Sulbactam [AmpS.] | R | R | R | R | – | – | – | – | – | – | – | – | – | – | – | – | – | – | minimal inhibiting concentration (Escherichia coli; Escherichia coli isolate 1): 16/8; minimal inhibiting concentration (Escherichia coli; Escherichia coli isolate 2): 16/8; minimal inhibiting concentration (Escherichia coli; Escherichia coli isolate 3): 16/8; minimal inhibiting concentration (Escherichia coli; Escherichia coli isolate 4): 16/8; interpretation of the result (Escherichia coli; Escherichia coli isolate 5): R; minimal inhibiting concentration (Escherichia coli; Escherichia coli isolate 5): 16/8; interpretation of the result (Pseudomonas aeruginosa; [6]): R; minimal inhibiting concentration (Pseudomonas aeruginosa; [6]): 16/8; interpretation of the result (Pseudomonas aeruginosa; [7]): R; minimal inhibiting concentration (Pseudomonas aeruginosa; [7]): 16/8; interpretation of the result (Pseudomonas aeruginosa; [8]): R; minimal inhibiting concentration (Pseudomonas aeruginosa; [8]): 16/8; interpretation of the result (Pseudomonas aeruginosa; [9]): R; minimal inhibiting concentration (Pseudomonas aeruginosa; [9]): 16/8; interpretation of the result (Pseudomonas aeruginosa; [10]): R; minimal inhibiting concentration (Pseudomonas aeruginosa; [10]): 16/8 |
| C[C@H]1[C@H](NC(=O)/C(=N\OC(C)(C)C(=O)O)c2csc(N)n2)C(=O)N1S(=O)(=O)O [Az., Aztreonam] | R | R | R | R | R | R | R | R | R | – | – | – | – | – | R | R | R | R | MIC (Escherichia coli; [26]): > 16 µg/mL; MIC (Escherichia coli; [27]): > 16 µg/mL; MIC (Escherichia coli; [28]): > 16 µg/mL; MIC (Escherichia coli; [29]): > 16 µg/mL; MIC (Escherichia coli; [30]): 8 µg/mL (≈ 18.4 µM); MIC (Acinetobacter baumannii; Acinetobacter baumannii isolate 1, read-out: minimal inhibiting concentration): > 16 µg/mL; MIC (Acinetobacter baumannii; Acinetobacter baumannii isolate 2, read-out: minimal inhibiting concentration): > 16 µg/mL; MIC (Acinetobacter baumannii; Acinetobacter baumannii isolate 3, read-out: minimal inhibiting concentration): > 16 µg/mL; MIC (Acinetobacter baumannii; Acinetobacter baumannii isolate 4, read-out: minimal inhibiting concentration): > 16 µg/mL; MIC (Acinetobacter baumannii; Acinetobacter baumannii isolate 5, read-out: minimal inhibiting concentration): > 16 µg/mL; interpretation of the result (Klebsiella ssp.; Klebsiella ssp. isolate 5): R; MIC (Klebsiella ssp.; Klebsiella ssp. isolate 1, read-out: minimal inhibiting concentration): > 16 µg/mL; MIC (Klebsiella ssp.; Klebsiella ssp. isolate 2, read-out: minimal inhibiting concentration): > 16 µg/mL; MIC (Klebsiella ssp.; Klebsiella ssp. isolate 3, read-out: minimal inhibiting concentration): > 16 µg/mL; MIC (Klebsiella ssp.; Klebsiella ssp. isolate 4, read-out: minimal inhibiting concentration): > 16 µg/mL; MIC (Klebsiella ssp.; Klebsiella ssp. isolate 5, read-out: minimal inhibiting concentration): > 16 µg/mL |
| Amoxillin-Calvulanate [AmoxC.] | – | – | – | – | R | R | R | R | R | – | – | – | – | – | R | R | R | R | minimal inhibiting concentration (Acinetobacter baumannii; [11]): 16/8; minimal inhibiting concentration (Acinetobacter baumannii; [12]): 16/8; minimal inhibiting concentration (Acinetobacter baumannii; [13]): 16/8; minimal inhibiting concentration (Acinetobacter baumannii; [14]): 16/8; minimal inhibiting concentration (Acinetobacter baumannii; [15]): 16/8; minimal inhibiting concentration (Klebsiella ssp.; Klebsiella ssp. isolate 1): 16/8; minimal inhibiting concentration (Klebsiella ssp.; Klebsiella ssp. isolate 2): 16/8; minimal inhibiting concentration (Klebsiella ssp.; Klebsiella ssp. isolate 3): 8/4; minimal inhibiting concentration (Klebsiella ssp.; Klebsiella ssp. isolate 4): 16/8; interpretation of the result (Klebsiella ssp.; Klebsiella ssp. isolate 5): R; minimal inhibiting concentration (Klebsiella ssp.; Klebsiella ssp. isolate 5): 16/8 |
| CO/N=C(\C(=O)N[C@@H]1C(=O)N2C(C(=O)[O-])=C(C[N+]3(C)CCCC3)CS[C@H]12)c1csc(N)n1 [Cefe., Cefepime] | R | R | R | R | – | – | – | – | – | – | – | – | – | – | R | R | – | R | MIC (Escherichia coli; [1]): > 16 µg/mL; MIC (Escherichia coli; [2]): > 16 µg/mL; MIC (Escherichia coli; [3]): > 16 µg/mL; MIC (Escherichia coli; [4]): > 16 µg/mL; MIC (Escherichia coli; [5]): 8 µg/mL (≈ 16.6 µM); MIC (Klebsiella ssp.; [21]): > 16 µg/mL; MIC (Klebsiella ssp.; [22]): > 16 µg/mL; MIC (Klebsiella ssp.; [23]): 2 µg/mL (≈ 4.16 µM); MIC (Klebsiella ssp.; [24]): > 16 µg/mL; MIC (Klebsiella ssp.; [25]): 2 µg/mL (≈ 4.16 µM) |
| C[C@@H](O)[C@H]1C(=O)N2C(C(=O)O)=C(S[C@@H]3CN[C@H](C(=O)Nc4cccc(C(=O)O)c4)C3)[C@H](C)[C@H]12 [Ert., Ertapenem] | – | – | – | – | – | – | – | – | – | – | – | – | – | – | – | S | S | S | susceptibility of isolates (Escherichia coli; all E. coli isolates): susceptible; MIC (Klebsiella ssp.; [22]): ≤ 0.5 µg/mL; MIC (Klebsiella ssp.; [23]): ≤ 0.5 µg/mL; MIC (Klebsiella ssp.; [24]): ≤ 0.5 µg/mL; susceptibility of isolates (Klebsiella ssp.; all Klebsiella ssp. isolates): susceptible |
| COc1c(N2CCNC(C)C2)c(F)cc2c(=O)c(C(=O)O)cn(C3CC3)c12 (stereo not shown) [Gati., Gatifloxacin] | – | – | – | – | R | R | I | R | R | > 4 | > 4 | 4 (≈ 10.7 µM) | > 4 | > 4 | – | – | – | – | – |
